Assays:
Assay type in all cases: in vivo
rice (Oryza sativa L.) [1] = assay: Test Example 2: soil application on the day after sowing, rice; conditions: 250 g/ha active ingredient, observed 19th to 28th day after application; for inhibition at 250 g/ha: Oryza sativa, read-out: Growth inhibition rate (%) Rice
Source text: (§1) Upland field soil was put into a 1/170,000 hectare pot, and seeds of various plants barnyardgrass (Echinochloa crus-galli L.), crabgrass (Digitaria sanquinalis L.), green foxtail (Setaria viridis L.), redroot pigweed (Amaranthus retroflexus L.), prickly sida (Sida spinosa L.), velvetleaf (Abutilon theophrasti MEDIC.), rice (Oryza sativa L.), wheat (Triticum spp.), corn (Zea mays L.) and soybean (Glycine max Merr.)) were sown. On the day after sowing, wettable powders or emulsifiable concentrates of the compounds of the above formula (I) prepared in accordance with a conventional preparation method, were weighed so that the active ingredients became the prescribed amounts, and diluted with water in an amount corresponding to 500 liter per 1 hectare, followed by soil application with a small sprayer.
(§2) On the 19th to 28th day after the application, the state of growth of the respective plants was visually observed, and the herbicidal effect was evaluated by a growth inhibition rate (%) of from 0 (equivalent to the non-treated area) to 100% (complete kill).

[2] = tested on: crabgrass (Digitaria sanguinalis L.); assay: Test Example 1: foliar treatment, upland pot test, crabgrass; conditions: 31 g/ha active ingredient, observed 17th to 25th day after application; for inhibition at 31 g/ha: Digitaria sanguinalis, read-out: Growth inhibition rate (%) Crabgrass
Source text: (§3) Upland field soil was put into a 1/170,000 hectare pot, and seeds of various plants were sown. When the respective plants reached predetermined leaf stage ((1) barnyardgrass (Echinochloa crus-galli L.): 1.0 to 3.0 leaf stage, (2) crabgrass (Digitaria sanguinalis L.): 1.0 to 3.0 leaf stage, (3) green foxtail (Setaria viridis L.): 1.0 to 3.0 leaf stage, (4) redroot pigweed (Amaranthus retroflexus L.): cotyledon stage to 2.0 leaf stage, (5) prickly sida (Sida spinosa L.): cotyledon stage to 1.0 leaf stage, (6) velvetleaf (Abutilon theophrasti MEDIC.): 0.1 to 1.5 leaf stage, (7) rice (Oryza sativa L.): 1.0 to 3.0 leaf stage, (8) wheat (Triticum spp.): 1.7 to 3.4 leaf stage, (9) corn (Zea mays L.): 2.0 to 3.5 leaf stage, (10) soybean (Glycine max Merr.): primary leaf stage to 0.4 leaf stage), wettable powders or emulsifiable concentrates of the compounds of the above formula (I) prepared in accordance with a conventional preparation method, were weighed so that the active ingredients became the prescribed amounts, and diluted with water in an amount corresponding to 500 liter per 1 hectare (containing 0.1 vol % of “KUSARINOH”, manufactured by NIHON NOHYAKU CO., LTD. as an agricultural spreader). The spray solutions thus prepared were applied for foliar treatment by a small sprayer.
(§4) On the 17th to 25th day after application, the state of growth of the respective plants was visually observed, and the herbicidal effect was evaluated by a growth inhibition rate (%) of 0 (equivalent to the non-treated area) to 100% (complete kill).

[3] = tested on: green foxtail (Setaria viridis L.); assay: Test Example 1: foliar treatment, upland pot test, green foxtail; conditions: 31 g/ha active ingredient, observed 17th to 25th day after application; for inhibition at 31 g/ha: Setaria viridis, read-out: Growth inhibition rate (%) Green foxtail
Source text: as §3, §4

[4] = tested on: redroot pigweed (Amaranthus retroflexus L.); assay: Test Example 1: foliar treatment, upland pot test, redroot pigweed; conditions: 31 g/ha active ingredient, observed 17th to 25th day after application; for inhibition at 31 g/ha: Amaranthus retroflexus, read-out: Growth inhibition rate (%) Redroot pigweed
Source text: as §3, §4

[5] = tested on: barnyardgrass (Echinochloa crus-galli L.); assay: Test Example 2: soil application on the day after sowing, barnyardgrass; conditions: 250 g/ha active ingredient, observed 19th to 28th day after application; for inhibition at 250 g/ha: Echinochloa crus-galli, read-out: Growth inhibition rate (%) Barnyardgrass
Source text: as §1, §2

wheat (Triticum spp.) [6] = assay: Test Example 1: foliar treatment, upland pot test, wheat; conditions: 31 g/ha active ingredient, observed 17th to 25th day after application; for inhibition at 31 g/ha: Triticum, read-out: Growth inhibition rate (%) Wheat
Source text: as §3, §4

[7] = tested on: crabgrass (Digitaria sanquinalis L.); assay: Test Example 2: soil application on the day after sowing, crabgrass; conditions: 250 g/ha active ingredient, observed 19th to 28th day after application; for inhibition at 250 g/ha: Digitaria, read-out: Growth inhibition rate (%) Crabgrass
Source text: as §1, §2

[8] = tested on: velvetleaf (Abutilon theophrasti MEDIC.); assay: Test Example 2: soil application on the day after sowing, velvetleaf; conditions: 250 g/ha active ingredient, observed 19th to 28th day after application; for inhibition at 250 g/ha: Abutilon theophrasti, read-out: Growth inhibition rate (%) Velvetleaf
Source text: as §1, §2

[9] = tested on: soybean (Glycine max Merr.); assay: Test Example 2: soil application on the day after sowing, soybean; conditions: Glycine max, 250 g/ha active ingredient, observed 19th to 28th day after application, read-out: Growth inhibition rate (%) Soybean
Source text: as §1, §2

[10] = tested on: redroot pigweed (Amaranthus retroflexus L.); assay: Test Example 2: soil application on the day after sowing, redroot pigweed; conditions: 250 g/ha active ingredient, observed 19th to 28th day after application; for inhibition at 250 g/ha: Amaranthus retroflexus, read-out: Growth inhibition rate (%) Redroot pigweed
Source text: as §1, §2

[11] = tested on: velvetleaf (Abutilon theophrasti MEDIC.); assay: Test Example 1: foliar treatment, upland pot test, velvetleaf; conditions: 31 g/ha active ingredient, observed 17th to 25th day after application; for inhibition at 31 g/ha: Abutilon theophrasti, read-out: Growth inhibition rate (%) Velvetleaf
Source text: as §3, §4

[12] = tested on: prickly sida (Sida spinosa L.); assay: Test Example 1: foliar treatment, upland pot test, prickly sida; conditions: 31 g/ha active ingredient, observed 17th to 25th day after application; for inhibition at 31 g/ha: Sida spinosa, read-out: Growth inhibition rate (%) Prickly sida
Source text: as §3, §4

corn (Zea mays L.) [13] = assay: Test Example 2: soil application on the day after sowing, corn; conditions: 250 g/ha active ingredient, observed 19th to 28th day after application; for inhibition at 250 g/ha: Zea mays, read-out: Growth inhibition rate (%) Corn
Source text: as §1, §2

wheat (Triticum spp.) [14] = assay: Test Example 2: soil application on the day after sowing, wheat; conditions: 250 g/ha active ingredient, observed 19th to 28th day after application; for inhibition at 250 g/ha: Triticum, read-out: Growth inhibition rate (%) Wheat
Source text: as §1, §2

rice (Oryza sativa L.) [15] = assay: Test Example 1: foliar treatment, upland pot test, rice; conditions: 31 g/ha active ingredient, observed 17th to 25th day after application; for inhibition at 31 g/ha: Oryza sativa, read-out: Growth inhibition rate (%) Rice
Source text: as §3, §4

corn (Zea mays L.) [16] = assay: Test Example 1: foliar treatment, upland pot test, corn; conditions: 31 g/ha active ingredient, observed 17th to 25th day after application; for inhibition at 31 g/ha: Zea mays, read-out: Growth inhibition rate (%) Corn
Source text: as §3, §4

[17] = tested on: green foxtail (Setaria viridis L.); assay: Test Example 2: soil application on the day after sowing, green foxtail; conditions: 250 g/ha active ingredient, observed 19th to 28th day after application; for inhibition at 250 g/ha: Setaria viridis, read-out: Growth inhibition rate (%) Green foxtail
Source text: as §1, §2

[18] = tested on: prickly sida (Sida spinosa L.); assay: Test Example 2: soil application on the day after sowing, prickly sida; conditions: 250 g/ha active ingredient, observed 19th to 28th day after application; for inhibition at 250 g/ha: Sida spinosa, read-out: Growth inhibition rate (%) Prickly sida
Source text: as §1, §2

[19] = tested on: barnyardgrass (Echinochloa crus-galli L.); assay: Test Example 1: foliar treatment, upland pot test, barnyardgrass; conditions: 31 g/ha active ingredient, observed 17th to 25th day after application; for inhibition at 31 g/ha: Echinochloa crus-galli, read-out: Growth inhibition rate (%) Barnyardgrass
Source text: as §3, §4

[20] = tested on: soybean (Glycine max Merr.); assay: Test Example 1: foliar treatment, upland pot test, soybean; conditions: 31 g/ha active ingredient, observed 17th to 25th day after application
Source text: as §3, §4

Structure (SMILES)	inhibition at 250 g/ha (rice (Oryza sativa L.) [1])	inhibition at 31 g/ha [2]	inhibition at 31 g/ha [3]	inhibition at 31 g/ha [4]	inhibition at 250 g/ha [5]	inhibition at 31 g/ha (wheat (Triticum spp.) [6])	inhibition at 250 g/ha [7]	inhibition at 250 g/ha [8]	inhibition at 250 g/ha [9]	inhibition at 250 g/ha [10]	inhibition at 31 g/ha [11]	inhibition at 31 g/ha [12]	inhibition at 250 g/ha (corn (Zea mays L.) [13])	inhibition at 250 g/ha (wheat (Triticum spp.) [14])	inhibition at 31 g/ha (rice (Oryza sativa L.) [15])	inhibition at 31 g/ha (corn (Zea mays L.) [16])	inhibition at 250 g/ha [17]	inhibition at 250 g/ha [18]	inhibition at 31 g/ha [19]	other results
CCn1ncc(C(=O)c2ccc(S(C)(=O)=O)c(C(=O)OC)c2C)c1O [compound 127]	70%	90%	90%	100%	85%	0%	100%	70%	50%	100%	100%	80%	0%	10%	90%	40%	100%	60%	90%	–
COCCOc1c(S(C)(=O)=O)ccc(C(=O)c2c(C)nn(C(C)C)c2O)c1C [compound 260]	–	–	–	–	–	–	–	–	–	–	–	–	–	–	–	–	–	–	–	Growth inhibition rate (%) Rice (rice (Oryza sativa L.) [1]): 100%; Growth inhibition rate (%) Crabgrass [2]: 80%; Growth inhibition rate (%) Green foxtail [3]: 70%; Growth inhibition rate (%) Redroot pigweed [4]: 90%; Growth inhibition rate (%) Barnyardgrass [5]: 100%; Growth inhibition rate (%) Wheat (wheat (Triticum spp.) [6]): 0%; Growth inhibition rate (%) Crabgrass [7]: 100%; Growth inhibition rate (%) Velvetleaf [8]: 70%; Growth inhibition rate (%) Redroot pigweed [10]: 100%; Growth inhibition rate (%) Velvetleaf [11]: 70%; Growth inhibition rate (%) Prickly sida [12]: 30%; Growth inhibition rate (%) Corn (corn (Zea mays L.) [13]): 60%; Growth inhibition rate (%) Wheat (wheat (Triticum spp.) [14]): 20%; Growth inhibition rate (%) Rice (rice (Oryza sativa L.) [15]): 70%; Growth inhibition rate (%) Soybean [20]: 40%; Growth inhibition rate (%) Corn (corn (Zea mays L.) [16]): 0%; Growth inhibition rate (%) Green foxtail [17]: 100%; Growth inhibition rate (%) Prickly sida [18]: 60%; Growth inhibition rate (%) Barnyardgrass [19]: 95%
CCOc1c(S(C)(=O)=O)ccc(C(=O)c2cnn(C)c2O)c1C [compound 144]	70%	95%	100%	100%	80%	20%	100%	50%	0%	75%	100%	100%	0%	0%	75%	10%	70%	50%	98%	–
